Test results published in ChEMBL document CHEMBL2396603, “Heterocyclic modification of a novel bicyclo[3.1.0]hexane NPY1 receptor antagonist” (Bioorg Med Chem Lett, 2013).
pIC50: −log10 of the molar value. ≈ marks a conversion by molar mass, not a printed value. Calls of active or inactive are those of the source. The calls are words filed in the database; no cut-off is given here.

Experiments:
[1] = molecular target: T1, Neuropeptide Y receptor type 1 (Homo sapiens, UniProt P25929); experiment: Displacement of [125I]PYY from NPY1 receptor in human SK-N-MC cells after 1 hr by microbeta scintillation counting analysis; format: cell-based
T1 sequence (P25929 whole entry): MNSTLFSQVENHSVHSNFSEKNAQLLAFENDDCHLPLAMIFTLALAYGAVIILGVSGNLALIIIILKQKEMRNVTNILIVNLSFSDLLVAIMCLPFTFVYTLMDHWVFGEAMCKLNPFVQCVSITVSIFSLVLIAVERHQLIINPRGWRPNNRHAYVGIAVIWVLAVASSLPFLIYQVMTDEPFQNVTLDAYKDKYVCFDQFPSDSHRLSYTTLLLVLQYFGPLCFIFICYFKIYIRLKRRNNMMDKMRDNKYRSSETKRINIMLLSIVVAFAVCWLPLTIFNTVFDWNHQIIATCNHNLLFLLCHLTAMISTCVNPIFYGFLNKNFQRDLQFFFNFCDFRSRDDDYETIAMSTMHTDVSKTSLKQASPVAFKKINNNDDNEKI

[2] = system: Rattus norvegicus; experiment: Antiobesity activity in Sprague-Dawley rat spontaneous nocturnal feeding model assessed as reduction in food intake at 35.6 to 60 mg/kg, po administered 2.5 hrs before onset of darkness measured during first hr; format: functional, organism-based
[3] = system: Rattus norvegicus; experiment: Antiobesity activity in Sprague-Dawley rat spontaneous nocturnal feeding model assessed as reduction in food intake at 10 to 30 mg/kg, ip administered 1 hr before onset of darkness measured during first hour and first 3 hrs of darkness; format: functional, organism-based
[4] = Drug uptake in rat brain at 10 mg/kg, ip after 15 mins; format: ADME, organism-based; design: dose 10 mg/kg, route intraperitoneal; conditions: read-out: Drug uptake
[5] = Oral bioavailability in rat at 20 mg/kg; format: ADME, organism-based; conditions: in vivo
[6] = Bioavailability in rat at 10 mg/kg, ip; format: ADME, organism-based; conditions: in vivo
[7] = Aqueous solubility of the compound in 40% aqueous trappsol; format: physicochemical

| SMILES | pIC50 [1] | other results |
| --- | --- | --- |
| CCOc1cccc(C2(N3CCN(c4ccccc4N)CC3)C3CC(C)CC32)c1 (stereo unspecified) | < 5.00 | – |
| CCOc1cccc(C2(N3CCN(c4ncncn4)CC3)C3CC(C)CC32)c1 (stereo unspecified) | 5.37 | – |
| CCOc1cccc(C2(N3CCN(c4cnccn4)CC3)C3CC(C)CC32)c1 (stereo unspecified) | 6.58 | – |
| CCOc1cccc(C2(N3CCNCC3)C3CC(C)CC32)c1 (stereo unspecified) | < 5.00 | – |
| CCOc1cccc(C2(N3CCN(c4cccnn4)CC3)C3CC(C)CC32)c1 (stereo unspecified) | 5.36 | – |
| CCOc1cccc(C2(N3CCN(Cc4ccccc4)CC3)C3CC(C)CC32)c1 (stereo unspecified) | < 5.00 | – |
| CCOc1cccc(C2(N3CCN(c4ccccc4)CC3)C3CC(C)CC32)c1 (stereo unspecified) | 7.21 | – |
| CCOc1cccc(C2(N3CCN(c4ccncc4)CC3)C3CC(C)CC32)c1 (stereo unspecified) | < 5.00 | – |
| CCOc1cccc(C2(N3CCN(c4cncnc4)CC3)C3CC(C)CC32)c1 (stereo unspecified) | 5.30 | – |
| CCOc1cccc(C2(N3CCN(c4ccccn4)CC3)C3CC(C)CC32)c1 (stereo unspecified) | 7.38 | Activity [2]: Active; Activity [3]: Active; concentration at 0.25 h [4]: > 100 nM; bioavailability [5]: 53%; bioavailability [6]: 40%; solubility [7]: > 50000 µg/mL |
| CCOc1cccc(C2(N3CCN(c4ccc(Cl)nn4)CC3)C3CC(C)CC32)c1 (stereo unspecified) | < 5.00 | – |
| CCOc1cccc(C2(N3CCN(c4ncccn4)CC3)C3CC(C)CC32)c1 (stereo unspecified) | 7.27 | solubility [7]: 10000 µg/mL (≈ 26.4 mM) |
| CCOc1cccc(C2(N3CCN(c4cccc(OC)n4)CC3)C3CC(C)CC32)c1 (stereo unspecified) | < 5.00 | – |
| CCOc1cccc(C2(N3CCN(c4cccnc4)CC3)C3CC(C)CC32)c1 (stereo unspecified) | 6.05 | – |
